Data from patent US20070134814A1, “Methods and compositions for the detection of calcifying nano-particles, identification and quantification of associated proteins thereon, and correlation to disease” (priority 2005, published 2007).

System: freshly collected human blood
Assay: Whole blood clotting slide test
Details: 10 μl solution added to plain glass slide before blood
Text: The method allows for measuring changes in the clotting time induced by contact with foreign surfaces, i.e. plain glass or coated glass, and for studying the effects of drugs on the clotting induced by foreign surface.
Venous blood was collected with venipuncture from 19 random volunteers participating in CNP epidemiological study (Ethical Committee Approval, Kuopio University). Volunteers signed an informed consent. Blood was collected with venipuncture in siliconized glass serum tubes, EDTA plasma tubes or citrate plasma tubes (Terumo), and was tested immediately after collection for whole blood clotting time on different test platforms.
200 μl of freshly drawn blood was added to pre-coated or plain glass slides which were put on a tilting shaker 15 tilts/minute at room temperature until formation of a solid clot was observed as “frozen droplet”. Experiments were carried out usually in triplicate to determine reproducibility of tests. CV % for the triplicate tests were less than 6.81% (CNP-coated slide, n=13), 8.79% (apatite-coated slide, n=15) and 10.37% (non-treated control slide, n=15). Clotting time results were analyzed by Bonferroni (Dunn) t Test (Table 1).
Therefore, to study the effects of apatite on clotting, a whole blood clotting slide test was developed. […]

| SMILES | effect on clotting time |
| --- | --- |
| O=C([O-])CN(CCN(CC(=O)[O-])CC(=O)[O-])CC(=O)[O-].[Ca+2].[Na+].[Na+] [Calcium EDTA] | did not affect the clotting time |
| CC(O)(P(=O)(O)O)P(=O)(O)O [etidronate] | did not affect the clotting time |
